Assay results from patent US20190083498A1, “THERAPIES FOR HEMATOLOGIC MALIGNANCIES” (GILEAD CALISTOGA LLC, priority 2008, published 2019).
“And” between values parts separate entries of the source, which are not always exact repeats. Equal entries are not always repeated.

What was measured:
[1] = tested on: IGROV-1 and OVCAR-3 cell lines; test: Proliferation of ovarian cancer cell lines, AlamarBlue; type: cell-based; conditions: IGROV-1 and OVCAR-3, with serum
Procedure: IGROV-1 and OVCAR-3 cell lines were grown in the presence of serum plus the indicated concentrations of the compound of formula I. Proliferation was measured in triplicate wells by AlamarBlue assay (Invitrogen) 96-well plates.

pAKT = pAKT in DLBCL cell lines; type: cell-based
[2] = tested on: HS-578T, T47D, and MCF7 cells; test: Apoptosis in breast cancer cell lines, Annexin V-FITC/7AAD; type: cell-based; conditions: 24 h
Procedure: HS-578T, T47D, and MCF7 cells were treated with the compound of formula I or corresponding DMSO concentrations for 24 h. The percentage of apoptotic cells was determined by Annexin V-FITC/7AAD staining Bottom left, viable cells (Annexin V-FITC/[…] negative); bottom right, early apoptotic cells (Annexin V-FITC positive only); top right, mid-late apoptotic cells (Annexin V-FITC/7AAD double-positive); and top left, late apoptotic/necrotic (7AAD positive only). Percentages of cells in each quadrant are indicated except for the bottom left quadrant (viable cells).

[3] = tested on: T47D and HS-578T cell lines; test: Proliferation of breast cancer cell lines, AlamarBlue; type: cell-based; conditions: with serum
Procedure: T47D and HS-578T cell lines were grown in the presence of serum plus the indicated concentrations of the compound of formula I. Proliferation was measured in triplicate wells by AlamarBlue® assay (Invitrogen) 96-well plates.

phospho-Akt(Ser473) = test: Constitutive Akt phosphorylation in leukemia and lymphoma cell lines, immunoblot; type: cell-based
Procedure: A large panel of leukemia and lymphoma cell lines was assessed for constitutive Akt phosphorylation. These cell lines represent B-lymphoma, T-lymphoma, ALL, Malignant histiocytosis, DLBCL and AML. […] Thereafter, cell were lysed, size-fractioned and immunoblotted with antibodies directed against phospho-Akt(Ser473).
The PI3K pathway is frequently deregulated in leukemia and lymphoma cell lines. […] In addition, PI3K pathway activation is dependent on p110δ.

Phospho-Akt = Phospho-Akt production in patient AML cells; type: cell-based, human; conditions: 0.1, 1.0, 10 μM
Description: PI3Kδ is implicated in signaling in AML patient cells.

[4] = tested on: cleavage of caspase 3 and PARP; test: Caspase 3 and PARP cleavage, MSD multi-spot plates; type: cell-based; conditions: 5 or 10 μM; 24 hrs
Procedure: Thereafter, cells were lysed and sized-fractionated and immunoblotted with antibody directed against FLIP, FIG. 29. Additionally, whole cell lysates were added to MDS (Meso Scale Diagnostics) multi-spot 96-well 4 spot plates coated with Total caspase-3, cleaved caspase-3, cleaved PARP, and BSA. Proteins were detected with antibodies labeled with SULFO-TAG reagent and quantified.

[5] = tested on: phospho-AKT (ser473) in INA-6 cells; test: Bortezomib-induced AKT phosphorylation, western blotting; type: cell-based, human; conditions: compound I 5 μM, bortezomib 5 nM; 6 h
Procedure: Phosphorylation of AKT was determined by western blotting of cell lysates using phospho-AKT (ser473) antibody, FIG. 37B. Actin served as a loading control.

[6] = tested on: patient chronic lymphocytic leukemia (CLL) cells; test: Apoptosis of patient CLL cells, Annexin V-FITC/PI flow cytometry; type: cell-based, human
Procedure: Peripheral blood was obtained from patients with B-CLL through the CLL Research Consortium from Ohio State University. Primary CD19-positive cells were isolated using Rosette-Sep (StemCell Technologies). Cells were maintained in RPMI 1640 (Invitrogen) supplemented with 10% heat-inactivated fetal bovine serum, 2 mmol/L L-glutamine, and penicillin (100 units/mL)/streptomycin (100 μg/mL; Invitrogen) at 37° C., 5% CO2, and high humidity. After incubation with the compound of formula I or medium for 96 hours, 5×10^5 cells were washed with PBS and then resuspended in binding buffer (10 mmol/L HEPES/NaOH, pH 7.4, 150 mmol/L NaCl 5 mmol/L KCl, 1 mmol/L MgCl2, 1.8 mmol/L CaCl2) containing 2 μL of Annexin V-FITC stock (BioWhittaker, Inc) and 10 μL of 20 μg/mL PI (Sigma). After incubation for 10 minutes at room temperature in a light-protected area, the specimens were quantified by flow cytometry on a FACScan™ (Becton Dickinson).

INA-6 and LB MM cells = test: Autophagy: LC3 accumulation, AVO acridine orange staining, LC3/beclin-1 western blot; type: cell-based, human
Description: Samples were examined under a fluorescence microscope.
Autophagosome formation was defined by the accumulation of LC3; arrows indicate autophagosomes, FIG. 33A.
GAPDH served as a loading control.

BMSCs = test: BMSC viability, MTT; type: cell-based, human; conditions: 0-20 μM, 48 h
Procedure: Cell viability was assessed by MTT assay, FIG. 34G. Values represent mean ±SD of triplicate cultures.

LB and INA-6 cells = test: MM cell DNA synthesis with IL-6 or IGF-1, [3H]-thymidine incorporation; type: cell-based, human; conditions: 5.0 or 10 μM; IL-6 1 and 10 ng/ml, IGF-1 10 and 100 ng/mL
Procedure: DNA synthesis was determined by measuring [3H]-thymidine incorporation during the last 8 h of 72 h cultures. Data represent means (±SD) of triplicate cultures.

MCL cell lines = test: Survival factor signaling (pAkt) in MCL cell lines; type: cell-based
LB cells [7] = test: LB cell proliferation with or without BMSCs, [3H]-thymidine uptake; type: cell-based, human; conditions: 0.625 μM-10 μM, 48 hours
Procedure: LB cells were cultured with control media, and with the compound of formula I for 48 hours, in the presence or absence of BMSCs. Cell proliferation was assessed using [^3H]-thymidine uptake assay. All data represent mean (±SD) of triplicate experiment.

primary MCL cells = test: Constitutive PI3K signaling in primary MCL cells; type: cell-based, human; conditions: two patients; dose dependent; 0.1 μM or 1 μM
[8] = tested on: Akt (Ser473) phosphorylation; test: Akt phosphorylation in ALL cell lines; type: cell-based
LB cells [9] = test: MM cell growth with IGF-1 or IL-6, MTT; type: cell-based, human; conditions: 0.625 μM-[…], IL-6 or IGF-1, 48 h
Procedure: LB cells (Myelomonocytic myeloma cell line) were cultured for 48 h with control media; with the compound of formula I, in the presence or absence of either IL-6 or IGF-1. […] Cells were pulsed with 10 μL of 5 mg/mL MTT to each well for the last 4 hours of 48-hour cultures, followed by 100 μL isopropanol containing 0.04 N HCl. Absorbance was measured at 570/630 nm using a spectrophotometer (Molecular Devices).

## CC[C@H](Nc1ncnc2[nH]cnc12)c1nc2cccc(F)c2c(=O)n1-c1ccccc1 [Compound I, 5-fluoro-3-phenyl-2-[1-(9H-purin-6-ylamino)-propyl]-3H-quinazolin-4-one]
[1]
  proliferation of ovarian cancer cell lines: inhibits proliferation
pAKT
  pAKT levels in DLBCL cell lines: reduces pAKT levels
[2]
  apoptosis in breast cancer cell lines: induces apoptosis
[3]
  proliferation of breast cancer cell lines: inhibits proliferation
phospho-Akt(Ser473); 10 μM, 2 hrs, including B-cell and T-cell lymphomas
  cell lines in which constitutive AKT phosphorylation was inhibited (FIG. 9): 11 out of 11
phospho-Akt(Ser473); hematopoietic tumor cell lines, 2 hours
  constitutive Akt(Ser473) phosphorylation: Reduction in Akt(Ser473) was achieved for all cell lines
phospho-Akt(Ser473); leukemia and lymphoma cell lines with constitutive p-AKT
  cell lines in which constitutive AKT phosphorylation was inhibited: 13 of 13 and 13 out of 13
Phospho-Akt
  phospho-Akt production in patient AML cells: reduces phopsho-Akt production
[4]
  cleavage of caspase 3 and PARP: dose dependent response
[5]
  induction of phospho-Akt by bortezomib treatment: inhibited
[6]
  apoptosis of CLL cells from poor prognosis patients: induced apoptosis was seen
  apoptosis of CLL cells from refractory/relapsed patients: induced apoptosis was also seen to be effective
[6]; 96 hours
  apoptosis of CLL patient cells: results in apoptosis
INA-6 and LB MM cells; 5 μM, 6 h, INA-6 and LB cells
  LC3 staining (immunofluorescence): markedly increased LC 3 staining
INA-6 and LB MM cells; INA-6, 6 h
  LC3-II and Beclin1 protein: markedly increased
INA-6 and LB MM cells; LB and INA-6 cells
  acidic vesicular organelles (acridine orange staining): development of AVOs
BMSCs
  growth inhibition in BMSCs: no significant growth inhibition
LB and INA-6 cells
  growth inhibition in the presence of IL-6 or IGF-1: Neither IL-6 nor IGF-1 protected
MCL cell lines
  pAkt in MCL lines exposed to survival factors: significant reduction of pAkt
LB cells [7]
  LB cell growth in the presence of BMSC: reduced
Primary MCL cells
  constitutive PI3K signaling in primary MCL cells: block constitutive PI3K signaling
[8]
  Akt phosphorylation in ALL cell lines: reduction in Akt phosphorylation
LB cells [9]
  MM cell growth in the presence of cell growth stimulatory cytokines: inhibits MM cell growth
